Among the data in ChEMBL document CHEMBL3046075, “Synthesis and antibacterial activity of novel 7-haloanilino-8-nitrofluoroquinolone derivatives” (2012) are MIC values, retold here.

Converted amounts (≈) assume the structure as drawn.

Test [1] has as its system Staphylococcus aureus. Description: Antibacterial activity against resistant isolates of Staphylococcus aureus after 24 hr by two-fold serial dilution method. The format is functional.
For test [2], the system named is Staphylococcus aureus. Description: Antibacterial activity against Staphylococcus aureus ATCC 6538 after 24 hr by two-fold serial dilution method. The format is functional. The settings on record: ATCC 6538, 24 h.

For the compound `O=C(O)c1cn(C2CC2)c2c([N+](=O)[O-])c(Nc3ccc(F)c(F)c3F)c(F)cc2c1=O`, the figures for the MIC in the test with Staphylococcus aureus [1] and against Staphylococcus aureus [2] were 9.8 µg/mL (≈ 22.4 µM) and 39 µg/mL (≈ 89.2 µM), respectively.

Regarding `O=C(O)c1cn(C2CC2)c2c([N+](=O)[O-])c(Nc3ccc(Cl)cc3)c(F)cc2c1=O`, the MIC stood at 9.8 µg/mL (≈ 23.5 µM) in the test with Staphylococcus aureus [1] and 6.7 µg/mL (≈ 16 µM) in the test with Staphylococcus aureus [2].

The compound `O=C(O)c1cn(C2CC2)c2c([N+](=O)[O-])c(Nc3ccccc3)c(F)cc2c1=O` had an MIC with Staphylococcus aureus [2] of 11.7 µg/mL (≈ 30.5 µM).

`O=C(O)c1cn(C2CC2)c2c([N+](=O)[O-])c(Nc3ccccc3F)c(F)cc2c1=O`: the MIC against Staphylococcus aureus [1] and against Staphylococcus aureus [2] was 106 µg/mL (≈ 264 µM) throughout.

On to `O=C(O)c1cn(C2CC2)c2c([N+](=O)[O-])c(Nc3ccccc3Cl)c(F)cc2c1=O`, for which the MIC against Staphylococcus aureus [1] and against Staphylococcus aureus [2] was 6.7 µg/mL (≈ 16 µM) throughout.

Turning to `O=C(O)c1cn(C2CC2)c2cc(N3CCNCC3)c(F)cc2c1=O` [CIPROFLOXACIN], the results for the MIC against Staphylococcus aureus [1] and in the test on Staphylococcus aureus [2] were 1.4 µg/mL (≈ 4.23 µM) and 2.9 µg/mL (≈ 8.75 µM), respectively.

For the compound `O=C(O)c1cn(C2CC2)c2c([N+](=O)[O-])c(Nc3cccc(Cl)c3)c(F)cc2c1=O`, the values for the MIC against Staphylococcus aureus [1] and against Staphylococcus aureus [2] were 7 µg/mL (≈ 16.8 µM) and 0.9 µg/mL (≈ 2.15 µM), respectively.

Usually MIC stands for the least concentration at which growth counts as inhibited. Read a high MIC as a less susceptible organism.
